Laboratory results reported in patent US7135568B2, “Substituted pyrazolopyrimidines and thiazolopyrimidines” (Gruenenthal GmbH, priority 2001, dated 2006).
Counter-ions that a name gives are not always drawn.

Each compound was assayed against T1, recombinant human adenosine A3 receptor (Homo sapiens, UniProt P0DMS8) (assay: adenosine A3 receptor displacement assay with [125I]AB-MECA). Conditions: compound concentration 3 μM; ligand 0.1 nM [125I]AB-MECA.
T1 construct: expressed in transfected cells
T1 sequence (P0DMS8 1-318): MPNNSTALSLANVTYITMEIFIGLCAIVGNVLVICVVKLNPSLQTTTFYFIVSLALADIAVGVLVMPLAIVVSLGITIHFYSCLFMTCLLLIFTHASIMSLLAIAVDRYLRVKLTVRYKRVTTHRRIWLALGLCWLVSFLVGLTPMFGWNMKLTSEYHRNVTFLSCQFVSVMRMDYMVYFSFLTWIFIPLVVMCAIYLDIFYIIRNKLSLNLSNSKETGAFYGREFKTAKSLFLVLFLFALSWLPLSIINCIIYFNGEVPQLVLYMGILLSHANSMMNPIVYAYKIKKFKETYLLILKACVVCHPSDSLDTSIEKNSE
Format: binding
Method: The dihydrochloride of Example 147 (prepared from Example 147 in a similar manner to Examples 145 and 152) was investigated as regards its affinity for the recombinant human adenosine A3 receptor in a displacement assay (C. A. Salvatore et al., Process. Natl. Acad. Sci. USA (1993), Vol. 90, 10365–10369). At a ligand concentration of 0.1 nM [^125I]AB-MECA (N^6-(4-amino-3-[^125I]iodobenzyladenosine) the displacement at a concentration of 3 μM was 93%.
`COc1ccc(C2CC(c3ccccn3)Nc3c(Br)c(-c4ccccc4)nn32)cc1OC` (stereo not shown) [dihydrochloride of Example 147, 3-bromo-7-(3,4-dimethoxyphenyl)-2-phenyl-5-pyridin-2-yl-tetrahydropyrazolo[1,5-a]pyrimidine] was tested, and the displacement was 93%.

The compounds below were run against T2, nucleoside transport protein (Homo sapiens, UniProt Q99808) (assay: inhibition of the nucleoside transport protein ([3H]NBl displacement, erythrocyte membrane)). Conditions: 1.5 nM [3H]NBl, 30 minutes at 25° C.
T2 construct: 100 μl of an aqueous suspension of erythrocyte membrane; from tissue; host or cells: erythrocyte membrane
T2 sequence (Q99808 1-456): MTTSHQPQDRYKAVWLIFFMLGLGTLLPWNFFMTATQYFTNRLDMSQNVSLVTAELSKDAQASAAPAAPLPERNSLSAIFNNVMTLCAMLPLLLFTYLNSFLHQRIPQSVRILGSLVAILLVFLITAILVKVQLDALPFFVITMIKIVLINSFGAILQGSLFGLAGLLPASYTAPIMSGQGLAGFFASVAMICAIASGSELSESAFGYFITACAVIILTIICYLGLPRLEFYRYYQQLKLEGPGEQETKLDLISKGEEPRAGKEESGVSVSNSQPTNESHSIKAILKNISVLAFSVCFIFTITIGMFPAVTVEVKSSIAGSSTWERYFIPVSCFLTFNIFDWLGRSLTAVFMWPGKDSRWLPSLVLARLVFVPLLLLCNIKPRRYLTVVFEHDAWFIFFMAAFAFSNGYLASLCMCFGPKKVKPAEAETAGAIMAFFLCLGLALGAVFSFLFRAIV
Format: binding
Method: The following test conditions were chosen for the determination of the inhibition of the nucleoside transport protein:
100 μl of the substance solution in aqueous solution with DMSO as solution aid were incubated for 30 minutes at 25° C. with 100 μl of 1.5 nM [^3H]NBl ([…]), 100 μl of buffer (50 mM Tris.HCl, pH 7.4) and 100 μl of an aqueous suspension of erythrocyte membrane. After the incubation the test mixture was filtered off (Whatman GF/C Filter, post-washed with 50 mM Tris.HCl). The filters were transferred to test tubes, 3.5 ml of scintillation fluid were added, and after 2 hours the radioactivity was measured in a β-counter.
`COc1ccc(C2CC(C(=O)c3ccccc3)Nc3c(C#N)c(SC)nn32)cc1OC` (stereo not shown) [Example 64, 5-benzoyl-7-(3,4-dimethoxyphenyl)-2-methylsulfanyltetrahydropyrazolo[1,5-a]pyrimidine-3-carbonitrile] gave a Ki of 600 nM. Work on `COc1ccc(C2CC(c3ccc([N+](=O)[O-])s3)Nc3c(Br)c(-c4ccccc4)nn32)cc1OC` (stereo not shown) [Example 54, 3-bromo-7-(3,4-dimethoxyphenyl)-5-(5-nitrothiophen-2-yl)-2-phenyltetrahydropyrazolo[1,5-a]pyrimidine] yielded a Ki of 1300 nM. `COc1ccc(C2CC(c3ccc([N+](=O)[O-])s3)Nc3c(N=Nc4ccccc4)c(O)nn32)cc1OC` (stereo not shown) [Example 53, 7-(3,4-dimethoxyphenyl)-5-(5-nitrothiophen-2-yl)-3-phenylazotetrahydropyrazolo[1,5-a]pyrimidin-2-ol] was tested, and the Ki was 600 nM. `COc1ccc(C2CC(c3ccccn3)Nc3c(Br)c(-c4ccccc4)nn32)cc1OC` (stereo not shown) [Example 145, 3-bromo-7-(3,4-dimethoxyphenyl)-2-phenyl-5-pyridin-2-yl-4,5,6,7-tetrahydropyrazolo[1,5-a]pyrimidine dihydrochloride] gave a Ki of 400 nM. `COc1ccc(C2CC(c3ccc([N+](=O)[O-])s3)Nc3c(C#N)c(SC)nn32)cc1OC` (stereo not shown) [Example 55, 7-(3,4-dimethoxyphenyl)-2-methylsulfanyl-5-(5-nitrothiophen-2-yl)-tetrahydropyrazolo[1,5-a]pyrimidine-3-carbonitrile] was tested, and the Ki was 400 nM. With `COc1ccc(C2CC(CCc3ccccc3)Nc3c(C#N)c(SC)nn32)cc1OC` (stereo not shown) [Example 111, 7-(3,4-dimethoxyphenyl)-2-methylsulfanyl-5-phenethyl-tetrahydropyrazolo[1,5-a]pyrimidine-3-carbonitrile] the Ki was 300 nM.

Same assay, conditions: 10 μM compound, 1.5 nM [3H]NBl
In the case of `COc1ccc(C2CC(c3ccc([N+](=O)[O-])o3)Nc3c(Br)c(-c4ccccc4)nn32)cc1OC` (stereo not shown) [Example 39, 3-bromo-7-(3,4-dimethoxyphenyl)-5-(5-nitrofuran-2-yl)-2-phenyl-tetrahydropyrazolo[1,5-a]pyrimidine], the “% Displacement at 10 μM” value is reported as 40%. With `COc1ccc(C2CC(c3ccc([N+](=O)[O-])o3)Nc3c(C#N)c(SC)nn32)cc1OC` (stereo not shown) [Example 153, 7-(3,4-dimethoxyphenyl)-2-methylsulfanyl-5-(5-nitrofuran-2-yl) tetrahydropyrazolo[1,5-a]pyrimidine-3-carbonitrile] the “% Displacement at 10 μM” value was 50%. For `CCOC(=O)c1cnn2c1NC(c1ccccn1)CC2c1ccc(OC)c(OC)c1` (stereo not shown) [Example 154, 7-(3,4-dimethoxyphenyl)-5-pyridin-2-yl-4,5,6,7-tetrahydropyrazolo[1,5-a]pyrimidine-3-carboxylic acid ethyl ester], the “% Displacement at 10 μM” value was 41%. In the case of `COc1ccc(C2CC(c3ccc([N+](=O)[O-])s3)Nc3c(C#N)cnn32)cc1OC` (stereo not shown) [Example 56, 7-(3,4-dimethoxyphenyl)-5-(5-nitrothiophen-2-yl)-tetrahydropyrazolo[1,5-a]pyrimidine-3-carbonitrile], the “% Displacement at 10 μM” value is reported as 43%.

Each compound was assayed on (+)-MK801 binding site of the ionotropic NMDA receptor (assay: (3H)-(+)-MK801 receptor binding test on rat brain membrane homogenate). Conditions: 10 μmole/l compound, 1 nmole/l (3H)-(+)-MK801, mean values of double determinations.
Method: The investigations to determine the NMDA antagonistic action of the compounds according to the invention were carried out on brain membrane homogenates (rat brain homogenate minus cerebellum, pons and medulla oblongata from male Wistar strain rats (Charles River, Sulzfeld, Germany)).
For this, freshly prepared rat brains were digested, after removal of the cerebellum, pons and medulla oblongata, in 50 mmole/l Tris/HCl (pH 7.7) in a Polytron homogeniser (model PT3000, Kinematika AG, Littau, Switzerland) at 6,000 revs. per minute (rpm) for 1 minute while cooling in ice and then centrifuged for 15 minutes at 4° C. and 60,000 g. The supernatant was decanted and discarded, and the membrane pellet was taken up again in 50 mmole/l of Tris/HCl (pH 7.7) and digested in a homogeniser at 2,000 rpm for 1 minute and recentrifuged for 15 minutes at 4° C. and 60,000 g. The supernatant was discarded again and the membrane pellet was homogenised in 50 mmole/l Tris/HCl (pH 7.7) (2,000 rpm for 1 minute) and aliquot portions were frozen at −70° C.
For the receptor binding test aliquots were in each case thawed out and then centrifuged for 15 minutes at 4° C. and 60,000 g. After decanting and discarding the supernatant, the membrane pellet for the binding test was taken up in binding test buffer and homogenised (2,000 rpm for 1 minute). 5 mmole/l Tris/HCl (pH 7.7) supplemented with 30 μmole/l of glycine and 100 μmole/l of glutamic acid was used as binding test buffer.
1 nmole/l of (^3H)-(+)-MK801 ((5R, 10S)-(+)-5-methyl-10,11-dihydro-5H-dibenzo(a,d)cyclohepten-5,10-imine (NET-972, NEN, Cologne, Germany) was added as radioactively labelled ligand. The proportion of non-specific binding was determined in the presence of 10 μmole/l of non-radioactively labelled (+)-MK801 (RBI/Sigma, Deisenhofen, Germany). In further assays the respective compounds according to the invention were added in concentration series and the displacement of the radioactive ligand from its specific binding to the NMDA receptor was measured.
The batches were incubated in each case for 40 minutes at 25° C. and then harvested by filtration to determine the radioactive ligand bound to the brain membrane homogenate. The radioactivity retained by the filter was measured after adding a scintillator (“Ready Protein” scintillator, Beckmann Coulter GmbH, Krefeld, Germany) in a β-counter (Packard TR^1-CARB Liquid Scintillation Analyser 2000CA, Packard Instrument, Meriden, Conn. 06450, USA).
The resulting percentage inhibition of the specific binding of the ligand (^3H)-(+)-MK801 in the presence of in each case 10 μmole/l of the respective compound according to the invention serves as a measure of the affinity of this compound for the (+)-MK801 binding site of the ionotropic NMDA receptor. The affinities are given in Table 2 as mean values of double determinations on selected examples.
With `CCOC(=O)C1C=NN2C1=NC(c1ccccn1)CC2Sc1ccccc1` (stereo not shown) [Example 141, 7-phenylsulfanyl-5-pyridin-2-yl-3,5,6,7-tetrahydropyrazolo[1,5-a]pyrimidine-3-carboxylic acid ethyl ester] the “% Inhibition of the specific binding of the ligand (3H)-(+)-MK801” value (from here on “% Inhibition”) was 45%. In the case of `N#CC1C=NN2C1=NC(c1ccccn1)CC2Sc1ccccc1` (stereo not shown) [Example 144, 7-phenylsulfanyl-5-pyridin-2-yl-3,5,6,7-tetrahydropyrazolo[1,5-a]pyrimidine-3-carbonitrile], the “% Inhibition” value is reported as 45%. In the case of `OC1=NN2C(=NC(c3ccccn3)CC2c2ccccc2)C1N=Nc1ccccc1` (stereo not shown) [Example 140, 7-phenyl-3-phenylazo-5-pyridin-2-yl-3,5,6,7-tetrahydropyrazolo[1,5-a]pyrimidin-2-ol], the “% Inhibition” value is reported as 44%. `BrC1C=NN2C1=NC(c1ccccn1)CC2Sc1ccccc1` (stereo not shown) [Example 143, 3-bromo-7-phenylsulfanyl-5-pyridin-2-yl-3,5,6,7-tetrahydropyrazolo[1,5-a]pyrimidine] was tested, and the “% Inhibition” value was 49%. For `OC1=NN2C(=NC(c3ccccn3)CC2Sc2ccccc2)C1N=Nc1ccccc1` (stereo not shown) [Example 142, 3-phenylazo-7-phenylsulfanyl-5-pyridin-2-yl-3,5,6,7-tetrahydropyrazolo[1,5-a]pyrimidin-2-ol], the “% Inhibition” value was 75%.
